Where two headings read alike, the source gives them in different places.
Columns and labels:
Type in all cases: cell-based, Staphylococcus aureus
[1] = test system: mid-logarithmic EMRSA-16 cells; test: Binding of catechins to S. aureus cells (HPLC assay of Kajiya et al); details: for fraction of the catechin pool bound to / associated with the cells: catechin alone, 20 min incubation at 35° C.
Description: As S. aureus membranes are uniquely composed of phosphatidylglycerol (63-74%), lysylphosphatidylglycerol (17-22%), and cardiolipin (5-15%), the inventors determined the capacity of non-galloylated catechins to enhance ECG binding to S. aureus using the HPLC assay described by Kajiya et al (Kajiya, K., S. Kumazawa, and T. Nakayama. 2001. Steric effects on the interaction of tea catechins with lipid bilayers. Biosci. Biotechnol. Biochem. 65:2638-2643). EC, EGC, ECG and EGCG were provided by the Tokyo Food Techno Co. Ltd., Tokyo, Japan. S. aureus BB568 is a constitutive PBP2a producer (provided by B. Berger-Bächi, University of Zürich), and EMRSA-15 and EMRSA-16 were clinical isolates from the Royal Free Hospital, London. Binding of ECG to mid-logarithmic EMRSA-16 cells was enhanced by EC at concentrations of 25 mcg/ml. 13% of the EC pool bound after 20 min incubation at 35° C., and 22% of ECG was associated with the cells. In the presence of EC, ECG binding rose to 41%. […] EC appears, therefore, to facilitate ECG binding to staphylococcal cells as well as to PC and PE liposomes.

[2] = test system: EMRSA-16; test: Checkerboard MIC assay, sensitization to oxacillin; details: for MIC: Staphylococcus aureus
Method: MICs were then recorded and the experiments were repeated in the presence of the non-galloylated catechin epicatechin at varying concentrations between 0 mcg/ml and 50 mcg/ml.
(§1) Checkerboard MIC assays were performed in 96-well microtiter trays with an inoculum of about 10^4 CFU in 200 μl of Mueller-Hinton broth (Oxoid, Basingstoke, United Kingdom) supplemented with 2% NaCl. MIC values were obtained after incubation at 35° C. for 24 h. S. aureus ATCC29213 was used as the standard susceptible strain. Fractional inhibitory concentration (FIC) indices for triple combinations were calculated as follows: ΣFIC=FICOXA+FICB+FICC=[C^combOXA/MIC^OXA]+[C^combB/MICB]+[C^combC/MICC], where C^combB, and C^combc are the concentrations of catechins tested. […] For combinations of two compounds the term (C^combC/MICC) was omitted. An FIC index of ≦0.5 indicates synergy.

[3] = test system: EMRSA-16, EMRSA-15 and BB568; test: Checkerboard MIC assay, results stated jointly for the three isolates
Method: as §1

[4] = test system: S. aureus BB568; test: Checkerboard MIC assay, sensitization to oxacillin; details: for MIC: Staphylococcus aureus
Method: as §1

[5] = test system: EMRSA-15; test: Checkerboard MIC assay, sensitization to oxacillin
Method: as §1

Question: How did the “EC binding in the presence of ECG” value ([1]; 20 min at 35° C.) turn out when `Oc1cc(O)c2c(c1)O[C@H](c1ccc(O)c(O)c1)[C@H](O)C2` [EC, epicatechin] was run?
Answer: 35.5%

Question: What about the “fraction of the catechin pool bound to / associated with the cells” value [1] of the same compound?
Answer: 13%

Question: `O=C(O[C@@H]1Cc2c(O)cc(O)cc2O[C@@H]1c1ccc(O)c(O)c1)c1cc(O)c(O)c(O)c1` [ECG, epicatechin gallate] was tested. Which “growth of EMRSA-16 in the absence of oxacillin” value ([2]; ECG ≧12.5 mg/ml with both EC and EGC ≧50 mg/ml, no oxacillin) did it give?
Answer: inhibited the growth

Question: What about the “ECG binding in the presence of EC” value ([1]; EC 25 mcg/ml, 20 min at 35° C.) of the same compound?
Answer: 41%

Question: And the “fraction of the catechin pool bound to / associated with the cells” value [1]?
Answer: 22%

Question: What does the source list for `Oc1cc(O)c2c(c1)O[C@H](c1cc(O)c(O)c(O)c1)[C@H](O)C2` [EGC, epigallocatechin]?
Answer: FIC index, triple combination with oxacillin and ECG ([3]; FIC index ≦0.5 indicates synergy): strong synergy; effect on the capacity of ECG to reduce oxacillin resistance ([3]; in combination with ECG and oxacillin): markedly enhanced; enhancement of EGCG-mediated sensitization to oxacillin ([3]; in combination with EGCG and oxacillin, less than with ECG): could enhance sensitization; effect of the non-galloylated catechin alone on the MIC of oxacillin ([3]; without ECG): unable to reduce the MIC of oxacillin

Question: For `O=C(O[C@@H]1Cc2c(O)cc(O)cc2O[C@@H]1c1cc(O)c(O)c(O)c1)c1cc(O)c(O)c(O)c1` [EGCG, epigallocatechin gallate], which “reduction of the oxacillin MIC by EGCG in the presence of ECG” value ([3]; ECG 3.12 mg/ml + EGCG 25 mg/ml, strain not stated) is on record?
Answer: twofold

Question: And the “sensitization to oxacillin by EGCG” value ([3]; EGCG without ECG, effect much less pronounced than with ECG)?
Answer: able to sensitize

Question: And the “effect on oxacillin MIC when added to ECG” value ([2]; ECG 0-12.5 mcg/ml, added catechin 0-50 mcg/ml)?
Answer: substantially no significant and synergistic effect

Question: And the “effect of EGCG on the capacity of ECG to reduce the oxacillin MIC” value ([2]; ECG 12.5 mg/ml)?
Answer: compromised the capacity of ECG to reduce the MICs

Question: What about the “effect of EGCG on the capacity of ECG to reduce the oxacillin MIC” value ([4]; ECG 12.5 mg/ml) of the same compound?
Answer: compromised the capacity of ECG to reduce the MICs

Question: What does the source list for `Cc1onc(-c2ccccc2)c1C(=O)N[C@@H]1C(=O)N2[C@@H]1SC(C)(C)[C@@H]2C(=O)O` [oxacillin]?
Answer: oxacillin MIC in the presence of ECG ([2]; ECG 12.5 mg/ml): below the oxacillin breakpoint; MIC ([2]; read-out: oxacillin MIC in the presence of ECG and EC, ECG 3.12 mg/ml + EC 25 mg/ml): 2 µg/mL; MIC ([2]; read-out: oxacillin MIC in the presence of ECG and EC, ECG 3.12 mcg/ml + EC 6.25 mcg/ml): 8 µg/mL; oxacillin MIC in the presence of ECG ([4]; ECG 12.5 mg/ml): below the oxacillin breakpoint; MIC ([4]; BB568, read-out: oxacillin MIC in the presence of ECG and EC): 8 µg/mL; MIC ([4]; BB568, read-out: oxacillin MIC in the presence of ECG and EC, ECG 3.12 mg/ml + EC 25 mg/ml): 2 µg/mL; oxacillin MIC in the presence of ECG ([5]; ECG 3.12 mg/ml): a similar effect was achieved; MIC ([5]; Staphylococcus aureus, 24 h, read-out: MIC of oxacillin): 16 µg/mL

Reference: patent US8338476B2, “Compositions and methods of sensitizing methicillin resistant Staphylococcus aureus to beta-lactam antibiotics” (priority 2005, dated 2012)
